Refractive index and mass density data for two compounds are collected here from the NIST ThermoML archive (doi:10.1016/j.jct.2014.06.029).

Data set [1] can be described thus: refractive index (Na D-line) (dimensionless); mn = molality of the nth substance listed, in mol/kg. The settings on record: 293.15 K; 101 kPa; Liquid; Standard Abbe refractometry; m1 = 0.02.
For data set [2] the following is noted: 298 K; 101.33 kPa; Crystal; X-ray diffraction.

Numbers after ± are expanded uncertainties.

For `CC(=O)C(=O)[O-].[Na+]` [sodium pyruvate] + O, the refractive index in data set [1] is recorded as 1.3308 ± 0.0007. Turning to `CC(=O)C(=O)[O-].[Na+]` [sodium pyruvate], in data set [2], the mass density was found to be 1749 ± 9 kg/m3.
